Measurements: US20230210984A1, “ADOPTIVE IMMUNOTHERAPY” (The Council of the Queensland Institute of Medical Research, priority 2019, published 2023)

Tests used:
[1] = test system: SNU719 gastric cancer xenograft; assay: SNU719 xenograft, anti-PD1 and allogenic EBV-specific T cells in vivo; parameters: species or system NOD/SCID mice
Description: FIG. 6: Impact of PD1 inhibition on therapeutic efficacy of allogeneic EBV-specific cytotoxic T cells in vivo. (A) Heat-map representing gene signature of 326 genes observed RNA isolated from in the tumour infiltrating (TILs) CD8+ cells performed using NanoString Immune function panel. The TILS were isolated from SNU719 derived tumour xenograft from six independent mice (LT5-10) after 5 days post a single dose of TI_001 treatment when the tumour size reached 40 mm^2. The gene expression observed in TILS was compared to unstimulated (LT11) and EBV-pepmix stimulated (LT12). (B) Statistical representation comparing the (i) percentage of CD3+CD8+ population; (ii) percentage of CD8+PD1+ population; (iii) percentage of CD8+LAG3+ population; and (iv) percentage of CD8+ TIM3+ population of viable TILS (described in (A)) and compared to unstimulated T cells (T cell therapy). Error bars represent the ±SEM from three independent experiments. P-values were calculated using one-way ANOVA. Statistical representation of SNU719 derived xenograft indicating (C) tumour growth; (D) tumour weight (in gms) at ethical limit of tumour growth; (E) percent survival post T cell, anti-PD1 and combination of T cell and anti-PD1 therapy observed in respective treatment groups compared to mock (PBS) treated control group. The statistical significance of data of tumour weight was analysed by one-way ANOVA. The mice survival was monitored over the indicated period of time and the statistical significance of data was analysed by log-rank test: ns not significant, **p<0.01, ***p<0.001, and ****p<0.0001.
A total of 12-24 female NOD/SCID mice (depending on the experiment) of 7-8 weeks old were used in this study. The mice were subjected to irradiation with 0.8 Gy cobalt-60 and after 4 hours, were subcutaneously injected with 5×10^6 cells of respective EBV-associated cancer cells with a 29-gauge needle. The mice were monitored for tumour growth, weight and body score thrice weekly. Once the tumour was palpable, the mice were randomised into respective groups and were treated with respective dosage of PBS or 20×10^6 tumour HLA matched allogenic EBV-specific T-cells. The tumour size in these mice were measured thrice weekly using the Vernier Calipers. To calculate tumour area the following formula was used: tumour area=B*S where B=largest tumour measurement and S=the smallest, based on two-dimensional caliper measurements as previously described.
Based on these observations, we hypothesized that a combination of checkpoint inhibitor and T cell therapy may offer better therapeutic benefit against EBV-associated tumours.

[2] = test system: EBV-associated cell lines (nasopharyngeal and gastric cancer cell lines); assay: MTS cell viability assay, IC50 of inhibitors; format: cell-based
Protocol: FIG. 9: Determining the IC50 value of MEK1/2 inhibitors. Representation of the cell viability performed using MTS assay after the indicated cell lines were incubated with 0.1 μM-5 μM of selumatinib (left panel) and trametinib (right panel) for 48 hours. The data are represented as the mean±SD from three independent experiments.
FIG. 14: Determining the IC50 value of JQ1 inhibitors. Representation of the cell viability performed using MTS assay after the indicated cell lines were incubated with 0.5 μM-10 μM of JQ1 for 48 hours. The data are represented as the mean±SD from three independent experiments.
Cell viability assay was performed using the CellTiter 96® AQueous one cell viability assay reagent (Promega, WI, USA) for three biological replicates per EBV-associated cancer cell lines in triplicate. Briefly, the cancer cells (target cells) were plated at a density of 5000 cells per well in an overall media volume of 200 μL on a 96-well tissue-culture plate (BD Falcon™). The effector AdE1-LMPpoly transfected T cells were freshly thawed in RPMI-1640 with 10% FCS and 120 IU/mL of recombinant IL-2 at 37° C. and […]. Post 24 hrs of plating and incubation at 37° C. and […], the effector T cells were mixed to the target cells at a gradient ratio of effector to target (E:T) of 5:1-100:1. The exact number of T cells (To) used per E:T ratio (ET) was independently used as control alongside PBS treated target cells (Es) and sole media (M0). After 24 hrs of incubation at 37° C. and […], MTS was added to each well (1:100 dilution in media) and was incubated for 1 hour following which the plate was centrifuged at 1,200×g at room temperature for 5 min and absorbance of the mixture at an optical density of 490 nm was measured via a microplate reader. The relative cell viability was calculated using the following formula: […]
To determine the upregulation of MAPK pathway in EBV-associated solid cancers, we first identified the IC50 value of MEK1/2 inhibitors (AZD6244 or selumetanib and trematinib) across nasopharyngeal and gastric cancer cell lines (with drug concertation ranging from 0.1 μM-5 μM). […] In the next set of experiments, we wanted to determine the impact of MEK1/2 inhibition in combination with allogeneic EBV-specific T cells on EBV-associated solid cancers. As such, we treated the respective EBV-associated cell lines (both gastric and nasopharyngeal) individually or in combination with MEK1/2 inhibitors (both selumetanib and trematinib) and EBV-specific T cells.
Similarly, we targeted MYC-dependent cancer intrinsic pathway using JQ1 inhibitor by first determining the IC50 value of the inhibitor across nasopharyngeal and gastric cancer cell lines (with drug concertation ranging from 0.5 μM-10 μM). […] To characterized the impact of JQ1 inhibition in combination with allogeneic EBV-specific T cells on EBV-associated cancer cells, we used IC25 value JQ1 (2.5 μM) alongside an effector to target ratio of 25:1 of the respective HLA matched allogeneic EBV-specific T cells in vitro. […] We also performed phenotypic characterization, using flow cytometry, of SNU719 and C666.1 cells after 16 hours of individual and dual treatment in vitro.

| Molecule | SNU719 gastric cancer outgrowth ([1]; Nivolumab 24 hrs after T cell infusion, combination vs monotherapy and mock-treated groups, p<0.0001) | tumour size (tumour weight) ([1]; combination with T cells vs monotherapy groups) | survival post therapy ([1]; combination with T cells vs monotherapy or mock-treated group, p<0.0001) | better survival in comparison to only T cell treated group ([1]; combination with T cells, p<0.01) [fold] | IC50 ([2]; 48 h, read-out: IC50 (~50% reduction in cell viability)) [µM] | IC25 value (sub IC50 value) ([2]; concentration chosen for in vitro combination treatment) [µM] |
| --- | --- | --- | --- | --- | --- | --- |
| Nivolumab: anti-PD1 antibody | significantly reduced | significantly reduced tumour size | significantly improved | ~2 | – | – |
| CC(=O)Nc1cccc(-n2c(=O)n(C3CC3)c(=O)c3c(Nc4ccc(I)cc4F)n(C)c(=O)c(C)c32)c1 [trematinib] | – | – | – | – | ~2.5 | 1 |
